# Results taken from US20110319266A1, “HERBICIDAL COMPOSITION” (priority 2009, published 2011).
# Several values for one entry are separate records, joined by “and”; a condition that tells them apart may be missing. Identical values can stand only once. Like-named read-outs stand apart in the source and are kept apart here.
# Key:
# Assay type in all cases: in vivo
# Triticum aestivum = system: Triticum aestivum
# Description: (§1) A plastic cup with a diameter of 8 cm and a depth of 6.5 cm was filled with soil. Seeds of wheat (Triticum aestivum) and one or more kinds of test plant selected from Alopecurus myosuroides, Lolium multiflorum, Setaria viridis, Sinapis arvensis and Stellaria media were sowed in the cup, and then grown in a greenhouse until Triticum aestivum was grown in the second to third leaf stage. Then, a test dilution containing predetermined amounts of the present compound, a compound selected from Group A and a compound selected from Group B was sprayed onto the whole plants uniformly. The test dilution was prepared by dissolving a predetermined amount of each compound in a 2% solution of Tween 20 (polyoxyethylene sorbitan fatty acid ester, MP Biomedicals, Inc.) in dimethylformamide and then diluting the solution with water, and then mixing the respective water dilutions thus obtained of the present compound, a compound selected from Group A and a compound selected from Group B. After the spray treatment, the plants were grown in a greenhouse for 21 days.
# Setaria viridis = experiment: Test Example 1: greenhouse spray test, herbicidal effect on Setaria viridis
# Description: as §1, with “days. The herbicidal effect was rated in 101 levels from 0 (no effect) to 100 (complete death).” for “days.”
# Sinapis arvensis = experiment: Test Example 1: greenhouse spray test, herbicidal effect on Sinapis arvensis
# Description: as §1, with “days. The herbicidal effect was rated in 101 levels from 0 (no effect) to 100 (complete death).” for “days.”
# Stellaria media = experiment: Test Example 1: greenhouse spray test, herbicidal effect on Stellaria media
# Description: as §1
# Lolium multiflorum = experiment: Test Example 1: greenhouse spray test, herbicidal effect on Lolium multiflorum
# Description: as §1
# Alopecurus myosuroides = experiment: Test Example 1: greenhouse spray test, herbicidal effect on Alopecurus myosuroides
# Description: as §1, with “days. The herbicidal effect was rated in 101 levels from 0 (no effect) to 100 (complete death).” for “days.”
# [1] = amount of chemical 20 g/ha, 21 days after spray, scale 0 (no effect) to 100 (complete death)
# [2] = amount of chemical 200 g/ha, 21 days after spray, scale 0 (no effect) to 100 (complete death)
# [3] = Lolium multiflorum, 504 h, read-out: herbicidal effect on Lolium multiflorum
# [4] = amount of chemical 6.3 g/ha, 21 days after spray, scale 0 (no effect) to 100 (complete death)
# [5] = Lolium multiflorum, 504 h, amount of chemical 6.3 g/ha, 21 days after spray, scale 0 (no effect) to 100 (complete death), read-out: herbicidal effect on Lolium multiflorum
# [6] = amount of chemical 5 g/ha, 21 days after spray, scale 0 (no effect) to 100 (complete death)
# [7] = amount of chemical 0.1 g/ha, 21 days after spray, scale 0 (no effect) to 100 (complete death)
# [8] = amount of chemical 0.2 g/ha, 21 days after spray, scale 0 (no effect) to 100 (complete death)
# [9] = amount of chemical 25 g/ha, 21 days after spray, scale 0 (no effect) to 100 (complete death)
# [10] = amount of chemical 3.1 g/ha, 21 days after spray, scale 0 (no effect) to 100 (complete death)
# [11] = amount of chemical 0.25 g/ha, 21 days after spray, scale 0 (no effect) to 100 (complete death)
smiles,measurement,setting,value
"O=C(O)COc1ccc(Cl)cc1Cl [2,4-D]",herbicidal effect on Triticum aestivum,Triticum aestivum; amount of chemical 25 g/ha,0
same,herbicidal effect on Setaria viridis,Setaria viridis; amount of chemical 25 g/ha,0
same,herbicidal effect on Sinapis arvensis,Sinapis arvensis; amount of chemical 25 g/ha,80
"N#Cc1cc(Br)c(O)c(Br)c1 [Bromoxynil, bromoxynil]",herbicidal effect on Triticum aestivum,Triticum aestivum; [1],0
same,herbicidal effect on Triticum aestivum,Triticum aestivum; [2],5
same,herbicidal effect on Stellaria media,Stellaria media; [1],0
same,herbicidal effect on Stellaria media,Stellaria media; [2],10
same,pest or weed control at 20 g/ha,Lolium multiflorum; [3],0%
same,pest or weed control at 200 g/ha,Lolium multiflorum; [3],0%
COc1nc(C)nc(NC(=O)NS(=O)(=O)c2ccccc2Cl)n1 [Chlorsulfuron],herbicidal effect on Alopecurus myosuroides,Alopecurus myosuroides; amount of chemical 1 g/ha,0
O=C(O)c1nc(Cl)ccc1Cl [Clopyralid],herbicidal effect on Triticum aestivum,Triticum aestivum; amount of chemical 100 g/ha,0
same,herbicidal effect on Alopecurus myosuroides,Alopecurus myosuroides; amount of chemical 100 g/ha,0
"CCCCCC(C)OC(=O)COc1ccc(Cl)c2cccnc12 (stereo not drawn) [Cloquintocet-mexyl, cloquintocet-mexyl]",herbicidal effect on Alopecurus myosuroides,Alopecurus myosuroides; amount of chemical 6.3 g/ha,0
same,herbicidal effect on Alopecurus myosuroides,Alopecurus myosuroides; [4],0
same,herbicidal effect on Stellaria media,Stellaria media; [4],0
same,herbicidal effect on Sinapis arvensis,Sinapis arvensis; [4],0
same,pest or weed control at 6.3 g/ha,Lolium multiflorum; [5],0%
COc1c(Cl)ccc(Cl)c1C(=O)O [Dicamba],pest or weed control at 50 g/ha,"Lolium multiflorum; Lolium multiflorum, 504 h, amount of chemical 50 g/ha",0%
"CCOC(=O)c1nc(C(Cl)(Cl)Cl)n(-c2ccc(Cl)cc2Cl)n1 [Fenchlorazole-ethyl, fenchlorazole-ethyl]",herbicidal effect on Setaria viridis,Setaria viridis; amount of chemical 6.3 g/ha,0
same,herbicidal effect on Sinapis arvensis,Sinapis arvensis; [6],0
same,herbicidal effect on Sinapis arvensis,Sinapis arvensis; amount of chemical 6.3 g/ha,0
same,pest or weed control at 5 g/ha,"Lolium multiflorum; Lolium multiflorum, 504 h, amount of chemical 5 g/ha, 21 days after spray, scale 0 (no effect) to 100 (complete death)",0%
same,pest or weed control at 6.3 g/ha,Lolium multiflorum; [5],0%
"COc1ncc(F)c2nc(S(=O)(=O)Nc3c(F)cccc3F)nn12 [Florasulam, florasulam]",herbicidal effect on Triticum aestivum,Triticum aestivum; amount of chemical 0.1 g/ha,0
same,herbicidal effect on Triticum aestivum,Triticum aestivum; [7],0
same,herbicidal effect on Triticum aestivum,Triticum aestivum; [8],0
same,herbicidal effect on Lolium multiflorum,Lolium multiflorum; amount of chemical 0.1 g/ha,0
same,herbicidal effect on Lolium multiflorum,Lolium multiflorum; [7],0
same,herbicidal effect on Lolium multiflorum,Lolium multiflorum; [8],0
Nc1c(Cl)c(F)nc(OCC(=O)O)c1Cl [Fluroxypyr],herbicidal effect on Triticum aestivum,Triticum aestivum; [9],0
same,herbicidal effect on Alopecurus myosuroides,Alopecurus myosuroides; [9],0
same,herbicidal effect on Stellaria media,Stellaria media; [9],40
"CCc1cc(C)cc(CC)c1-c1c(O)c(C)nn(C)c1=O [I-a-14, 4-(2,6-diethyl-4-methylphenyl)-5-hydroxy-2,6-dimethyl-3(2H)-pyridazinone]",herbicidal effect on Alopecurus myosuroides,Alopecurus myosuroides; [9],90
same,herbicidal effect on Stellaria media,Stellaria media; [9],50
same,herbicidal effect on Sinapis arvensis,Sinapis arvensis; [9],60
same,pest or weed control at 25 g/ha,"Lolium multiflorum; Lolium multiflorum, 504 h, amount of chemical 25 g/ha, 21 days after spray, scale 0 (no effect) to 100 (complete death)",90%
CCc1cc(CC)c(-c2c(O)c(C)nn(C)c2=O)c(CC)c1 [I-a-17],herbicidal effect on Triticum aestivum,Triticum aestivum; [6],5
same,herbicidal effect on Sinapis arvensis,Sinapis arvensis; [6],30
same,herbicidal effect on Lolium multiflorum,Lolium multiflorum; [6],10
CCc1cc(C)cc(C)c1-c1c(O)c(C)nn(C)c1=O [I-a-18],herbicidal effect on Triticum aestivum,Triticum aestivum; [4],5
same,herbicidal effect on Stellaria media,Stellaria media; [4],5
same,herbicidal effect on Lolium multiflorum,Lolium multiflorum; [4],60
CCc1cc(C)cc(CC)c1-c1c(OC(C)=O)c(C)nn(C)c1=O [I-b-14],herbicidal effect on Triticum aestivum,Triticum aestivum; [4],5
same,herbicidal effect on Lolium multiflorum,Lolium multiflorum; [4],70
CCOC(=O)Oc1c(C)nn(C)c(=O)c1-c1c(CC)cc(C)cc1CC [I-b-18],herbicidal effect on Triticum aestivum,Triticum aestivum; amount of chemical 25 g/ha,10
same,herbicidal effect on Triticum aestivum,Triticum aestivum; [9],10
same,herbicidal effect on Stellaria media,Stellaria media; amount of chemical 25 g/ha,5
same,herbicidal effect on Lolium multiflorum,Lolium multiflorum; amount of chemical 25 g/ha,30
same,herbicidal effect on Lolium multiflorum,Lolium multiflorum; [9],30
CCc1cc(C)cc(CC)c1-c1c(OC(=O)OC)c(C)nn(C)c1=O [I-b-25],herbicidal effect on Triticum aestivum,Triticum aestivum; amount of chemical 25 g/ha,5
same,herbicidal effect on Setaria viridis,Setaria viridis; amount of chemical 25 g/ha,95
same,herbicidal effect on Sinapis arvensis,Sinapis arvensis; amount of chemical 25 g/ha,20
CCOC(=O)Oc1c(C)nn(C)c(=O)c1-c1c(C)cc(C)cc1CC [I-b-35],herbicidal effect on Triticum aestivum,Triticum aestivum; amount of chemical 25 g/ha,10
same,herbicidal effect on Alopecurus myosuroides,Alopecurus myosuroides; amount of chemical 25 g/ha,50
CCc1cc(CC)c(-c2c(OC(=O)OC)c(C)nn(C)c2=O)c(CC)c1 [I-b-36],herbicidal effect on Triticum aestivum,Triticum aestivum; amount of chemical 25 g/ha,10
same,herbicidal effect on Alopecurus myosuroides,Alopecurus myosuroides; amount of chemical 25 g/ha,50
"CCOC(=O)C1=NN(c2ccc(Cl)cc2Cl)C(C)(C(=O)OCC)C1 (stereo not drawn) [Mefenpyr-diethyl, mefenpyr-diethyl]",herbicidal effect on Triticum aestivum,Triticum aestivum; [10],0
same,herbicidal effect on Triticum aestivum,Triticum aestivum; amount of chemical 6.3 g/ha,0
same,herbicidal effect on Triticum aestivum,Triticum aestivum; [4],0
same,herbicidal effect on Stellaria media,Stellaria media; [10],0
same,herbicidal effect on Stellaria media,Stellaria media; amount of chemical 6.3 g/ha,0
same,herbicidal effect on Stellaria media,Stellaria media; [4],0
same,pest or weed control at 3.1 g/ha,Lolium multiflorum; [3],0%
same,pest or weed control at 6.3 g/ha,Lolium multiflorum; [3],0%
same,herbicidal effect on Lolium multiflorum,Lolium multiflorum; amount of chemical 6.3 g/ha,0
"COC(=O)c1ccccc1S(=O)(=O)NC(=O)Nc1nc(C)nc(OC)n1 [Metsulfuron-methyl, metsulfuron-methyl]",herbicidal effect on Triticum aestivum,Triticum aestivum; [7],0
same,herbicidal effect on Sinapis arvensis,Sinapis arvensis; [7],70
same,pest or weed control at 0.1 g/ha,"Lolium multiflorum; Lolium multiflorum, 504 h, amount of chemical 0.1 g/ha, 21 days after spray, scale 0 (no effect) to 100 (complete death)",0%
"Cc1nn(C)c(O)c1C(=O)c1ccc(C(F)(F)F)cc1S(C)(=O)=O [Pyrasulfotole, pyrasulfotole]",herbicidal effect on Triticum aestivum,Triticum aestivum; [1],15
same,herbicidal effect on Sinapis arvensis,Sinapis arvensis; [1],70
same,herbicidal effect on Lolium multiflorum,Lolium multiflorum; [1],0
"COC(=O)c1sccc1S(=O)(=O)NC(=O)Nc1nc(C)nc(OC)n1 [Thifensulfuron-methyl, thifensulfuron-methyl]",herbicidal effect on Stellaria media,Stellaria media; amount of chemical 1 g/ha,50
"COC(=O)c1ccccc1S(=O)(=O)NC(=O)N(C)c1nc(C)nc(OC)n1 [Tribenuron-methyl, tribenuron-methyl]",herbicidal effect on Triticum aestivum,Triticum aestivum; [11],0
same,herbicidal effect on Stellaria media,Stellaria media; [11],90 and 80
same,pest or weed control at 0.25 g/ha,"Lolium multiflorum; Lolium multiflorum, 504 h, amount of chemical 0.25 g/ha, 21 days after spray, scale 0 (no effect) to 100 (complete death)",0%
